# System: H. ducreyi
# Experiment: growth of H. ducreyi in the presence of sialic acid
# Assay type: cell-based, Haemophilus ducreyi
# Method: H. ducreyi strains were cultured on chocolate agar plates at 35° C. in a 5% CO2 atmosphere as previously described (42). Chocolate agar was supplemented with 1 mM NeuAc (Calbiochem, La Jolla, Calif.) or kanamycin at 20 μg/ml when appropriate. E. coli strains were grown on Luria-Bertani (LB) plates or in LB broth, and were supplemented with kanamycin when appropriate.
# In this and previous studies, H. ducreyi were grown on plates containing high levels of sialic acid (22, 50). […] To more quantitatively test whether the presence of high levels of sialic acid affected the growth rate of H. ducreyi, growth curves of H. ducreyi in low (˜0.5 μM, basal level in media) (50), medium (10 μM), and high (1 mM) sialic acid conditions were performed (46). […] Both E. coli and H. influenzae seem to utilize their ability to degrade sialic acid as one mechanism of controlling the intracellular levels of sialic acid (66, 68, 69). As noted above, it is currently unclear if H. ducreyi is able to degrade sialic acid. Another possible mechanism for controlling sialic acid uptake may be through the PBPs. […] Therefore, it is possible that SatA may play an important role in controlling sialic acid uptake in H. ducreyi. One mechanism of control could be that the level of satA expression may be affected by the intracellular levels of sialic acid. […]
compound,measurement,setting,value
"CC(=O)N[C@H]1[C@H]([C@H](O)[C@H](O)CO)OC(O)(C(=O)O)C[C@@H]1O (some centres unmarked) [sialic acid, N-acetyl-neuraminic acid]",effect of sialic acid on growth of the bacteria on plates,grown on plates containing high levels of sialic acid,did not seem to affect the growth
same,growth rate (growth curves),"low (~0.5 μM, basal level in media), medium (10 μM) and high (1 mM) sialic acid",no differences in the growth rates
